Assay: xn = mol fraction of the nth substance listed
Conditions: Liquid, Vibrating wire viscometry, x1 = 1

CCCCO [butan-1-ol] + Cc1ccc(C)c(C)c1
viscosity [mPa·s]
Conditions | 293.15 K | 298.15 K | 313.15 K | 323.15 K | 333.15 K | 348.15 K | 353.15 K
100 kPa | 2.969 | 2.601 | 1.797 | 1.429 | 1.156 | 0.8579 | 0.7903
1000 kPa | 3.001 | 2.622 | 1.813 | 1.44 | 1.172 | 0.8647 | 0.7943
5000 kPa | 3.108 | 2.715 | 1.89 | 1.491 | 1.227 | 0.8956 | 0.8284
10000 kPa | 3.244 | 2.834 | 1.967 | 1.556 | 1.29 | 0.9349 | 0.8637
20000 kPa | 3.479 | 3.079 | 2.14 | 1.69 | 1.389 | 1.016 | 0.9473
30000 kPa | 3.788 | 3.333 | 2.319 | 1.829 | 1.504 | 1.101 | 1.04
40000 kPa | 4.078 | 3.599 | 2.48 | 1.975 | 1.624 | 1.189 | 1.102
50000 kPa | 4.401 | 3.874 | 2.629 | 2.125 | 1.741 | 1.28 | 1.21
60000 kPa | 4.74 | 4.16 | 2.852 | 2.281 | 1.867 | 1.375 | 1.295
70000 kPa | 5.076 | 4.455 | 3.089 | 2.443 | 2.014 | 1.473 | 1.384
80000 kPa | 5.438 | 4.761 | 3.247 | 2.61 | 2.137 | 1.575 | 1.473
100000 kPa | 6.164 | 5.404 | 3.686 | 2.962 | 2.384 | 1.788 | 1.676
120000 kPa | 6.979 | 6.087 | 4.192 | 3.335 | 2.633 | 2.015 | 1.857
140000 kPa | 7.843 | 6.811 | 4.638 | 3.682 | 2.883 | 2.255 | 2.037

— the NIST ThermoML archive (doi:10.1016/j.jct.2016.07.008)
